Data: US6602708B1, “Neural cultures” (CellFactors plc, priority 1994, dated 2003)

Tests used:
raphe clone 1 cells = raphe clone 1 cells at non-permissive temperature (39° C.), survival and differentiation; type: cell-based, rat; settings: plus fibroblast growth factor, up to 72 h
Method: The above referred to homogeneous population of raphe clone 1 cells can be caused to enter apoptosis using any of the following four methods.
1. Temperature was raised to non-permissive value (39° C.) for up to 72 h, in the presence or absence of fibroblast growth factor or epidermal growth factor. Neural cells developed the ability to take up 5-hydroxytryptophan (5HTP, the precursor of 5HT), 5HT itself, and to decarboxylate 5-hydroxytryptophan to 5HT. […] The 5HT derived from 5HTP was released, although the mechanism of such release is not known.
2. Temperature was raised to non-permissive value (39° C.) for up to 72 h, in the presence of cyclic AMP plus fibroblast growth factor.
3. Temperature was raised to non-permissive value (39° C.) for up to 96 h, in the presence of retinoic acid (10 μM) plus fibroblast growth factor.

low-affinity carrier = test: serotonin uptake by clone 921203-6 cells after shift to 39° C.; type: cell-based, rat; settings: clone 921203-6, 39° C.
Method: Mesencephalic and medullary raphe neural cells from the E12-E13 rat embryo (E1=day of conception) were immortalised using a temperature-sensitive oncogene as described earlier (Stringer et al., 1994). Under permissive conditions, ie in the presence of 5 ng/ml of fibroblast growth factor (FGF)(Sigma, product no. F3391) and at 33° C., the immortalised raphe precursor cells replicate. […] No calcium channels were demonstrable using patch clamp analysis.

SMILES	extent of fibre development (raphe clone 1 cells)	Km (low-affinity carrier) [µM]
Nc1ncnc2c1ncn2[C@@H]1O[C@@H]2COP(=O)(O)O[C@H]2[C@H]1O [cyclic AMP]	increase	–
NCCc1c[nH]c2ccc(O)cc12 [serotonin, 5-hydroxytryptamine]	–	56
